# Measurements: US10768185B2, “Tenofovir detection assay” (TRUSTEES OF BOSTON UNIVERSITY, priority 2017, dated 2020)
# Counter-ions that a name gives are not always drawn.
# Assays:
# [1] = system: anti-TFV antibody conjugated to gold nanoparticles; assay: Lateral flow assay specificity test; type: binding, rabbit; details: 100 μg/mL in urine
# Procedure: (§1) Hi-Flow Plus HF180 nitrocellulose sheets were laser cut into lateral flow strips and chromatography paper was adhered to the end of the strips as a waste reservoir using autoclave tape. Samples of TFV were prepared at varying concentrations between 10 ng/mL and 100 μg/mL in urine alongside a no TFV control sample. For each sample, 1 μL of conjugated gold nanoparticles was added to 244, of PBS and 804, of sample was added. The mixture was allowed to incubate at room temperature on a rotator for at least 30 minutes. 0.3 μL of anti-rabbit antibody was spotted on the strips as a control spot. 0.3 μL of 2.5 μg/mL BSA-TFV was spotted as the test spot on the strips upstream of the control spot. The spots were allowed to dry and another 0.3 μL of BSA-TFV was spotted on top of the test spot. After incubation, concentrated TBS-T was added to each sample such that the final Tween 20 concentration was 0.05%. One end of each of the lateral flow strips was dipped vertically into the sample tubes such that the solution ran up the nitrocellulose strip and into the waste reservoir via capillary action. The strips were incubated in the solution for 25-30 minutes before being photographed with a Nikon DS-Ri2 camera and analyzed via ImageJ.
# The protocol is the same as the competitive lateral flow assay. Solutions of TFV, AZT, Abcavir, AMP, and adenine were made at concentrations of 100 μg/mL alongside a urine only control sample.
# [2] = system: anti-TFV polyclonal antibody; assay: Immunoprecipitation of TFV by anti-TFV antibody, LC-MS readout; type: binding, rabbit; details: mixture of 50 μg/mL TFV and 1 mg/mL AMP (AMP 20× higher), anti-TFV serum, Protein G beads
# Procedure: LC-MS measurements were taken on an Agilent 1100 series LC/MSD with a Cortecs C18 column (90 Å, 2.7 μm, 4.6 mm×150 mm) from Waters (Milford, Mass.). Samples were dissolved in a solution of 9754, 0.6% trifluoroacetic acid in water and 254, methanol. 204, of sample was injected into a gradient mobile phase outlined in Table 1 at a flowrate of 0.6 mL/min into the column equilibrated at 45° C. and passed through the mass spectrometer set for positive polarity electrospray ionization (ESI+) at a range of 100-1500 m/z.
# Two samples were prepared containing a mixture of 1004, of 50 μg/mL TFV and 100 μL of 1 mg/mL AMP. To one tube 375 μL of anti-TFV serum (+IP) was added and to the other 375 μL of PBS (−IP). The samples were incubated while rotating at 4° C. overnight. 3004, of Protein G bead suspension was added to the samples and further incubated at 4° C. for 1 hour. The samples were spun down for 1 minute at 3000 rpm and decanted. The supernatant from the (−IP) sample (−IPsup) was set aside. The beads were then washed and decanted four times with yeast lysis buffer (50 mM HEPES pH 7.6, 1 mM EDTA, 1% Triton X-100, 0.1% sodium deoxycholate, 140 mM NaCl), with the third wash being with a high salt yeast lysis buffer (500 mM NaCl). The beads were then heat eluted for 5 minutes at 95° C. into 100 μL of TE buffer. […]
# [3] = cited from earlier work
# [4] = cited from earlier work; remark: listed apart in the source
# [5] = system: anti-TFV polyclonal antibody; assay: Competitive dot blot assay; type: binding, rabbit; details: spiked urine, HRP-coupled secondary antibody
# Procedure: Nitrocellulose strips were cut to dimensions of approximately 7 mm by 25 mm. BSA-TFV solution in PBS was diluted down to either 1 μg/mL or 100 ng/mL representing about a 1000-fold or 10,000-fold dilution factor. The strips were then spotted 3 times with luL of diluted BSA-TFV and allowed to dry. The strips were blocked with 5% milk in tris-buffered saline with Tween 20 (TBS-T) for 30 minutes and washed three times with TBS-T. Samples of TFV were prepared at varying concentrations between 1 ng/mL and 1 μg/mL in either TBS-T or human urine alongside a no TFV control sample. Anti-TFV polyclonal antibody from raw serum (e.g., unpurified) was added to the TFV samples at a dilution of 1:50,000 and incubated at room temperature while rotating for at least 1 hour. The strips were incubated in the spiked urine or TBS-T solutions of TFV and anti-TFV polyclonal antibody at room temperature while rotating for 1 hour and washed three times with TBS-T followed by a high-salt (500 mM NaCl) TBS-T wash and a low-salt (50 mM NaCl) TBS-T wash. The strips were then incubated in a 1:8000 dilution in TBS-T of anti-Rabbit antibody conjugated to HRP at room temperature while rotating for 1 hour and washed three times with TBS-T. The HRP was then visualized by pico chemiluminescent substrate and chemiluminescent photographs were taken by a VersaDoc Imaging Model 4000 system from BioRad.
# [6] = system: anti-TFV antibody conjugated to gold nanoparticles; assay: Competitive gold nanoparticle lateral flow assay, sensitivity test; type: binding, rabbit
# Procedure: as §1
# There was a statistically significant difference between groups as determined by one-way ANOVA (F(5,24)=15.0, p=1.02×10^−6).
smiles,measurement,setting,value
"Nc1ncnc2c1ncn2[C@@H]1O[C@H](COP(=O)(O)O)[C@@H](O)[C@H]1O [AMP, adenosine monophosphate]",staining of test area (no staining = positive for TFV),[1],staining in both the test area and control area
same,presence in immunoprecipitation product by LC-MS,[2],absence
Cc1cn([C@H]2C[C@H](N=[N+]=[N-])[C@@H](CO)O2)c(=O)[nH]c1=O [AZT],staining of test area (no staining = positive for TFV),[1],staining in both the test area and control area
Nc1nc(NC2CC2)c2ncn([C@H]3C=C[C@@H](CO)C3)c2n1 [Abcavir],staining of test area (no staining = positive for TFV),[1],staining in both the test area and control area
"Nc1ncnc2nc[nH]c12 [Adenine, adenine]",staining of test area (no staining = positive for TFV),[1],staining in both the test area and control area
"NNC(=O)c1ccncc1 [INH, isoniazid]",urinary concentrations of INA,[3]; typical dose 250 mg/day for a 50 kg patient,~100 µg/mL
same,oral dose recovered in the urine as INA,[3]; within 24 hr,30-40%
"CC(C)OC(=O)[C@H](C)N[P@](=O)(CO[C@H](C)Cn1cnc2c(N)ncnc21)Oc1ccccc1 [TAF, tenofovir alafenamide]",decrease in TFV plasma concentrations,"[4]; TAF 25 mg per day, compared with TDF",~10 ×
"CC(C)OC(=O)OCOP(=O)(CO[C@H](C)Cn1cnc2c(N)ncnc21)OCOC(=O)OC(C)C [TDF, tenofovir disoproxil fumarate]",urine concentration of TFV,[4]; patient taking 300 mg TDF daily,around 23 μg/mL
"C[C@H](Cn1cnc2c(N)ncnc21)OCP(=O)(O)O [TFV, Tenofovir]",staining of test area (no staining = positive for TFV),[1],no staining
same,lower limit of detection,[5],35 nM
same,presence in immunoprecipitation product by LC-MS,[2],presence
same,"test spot intensity versus no-TFV control (ANOVA, Tukey post hoc)","[6]; 1 μg/mL, 10 μg/mL and 100 μg/mL TFV in urine, N=5",statistically significant differences
same,lower limit of detection / sensitivity,"[6]; spiked urine, preliminary",1 µg/mL
same,concentration of TFV in urine,"[4]; 300 mg ingested only once, after 24-72 hours",1000 to 10000 ng/mL
same,urinary concentration of TFV relative to plasma concentration,[4]; patients on TFV regimens,over 100 ×
